{"source": "paper PMC12521527", "about": "“In vivo self-assembled nano-PROTAC for the dual degradation of AR and HSP90 to overcome castration-resistant prostate cancer resistance” (Signal Transduction and Targeted Therapy, 2025)", "test_system": "22Rv1 cells", "assay": "Annexin V/PI apoptosis by flow cytometry", "format": "cell-based", "settings": "22Rv1, 20 μM, 48 h, n = 3", "procedure": "All uncropped blots are presented in Supplementary Fig. 26. j, k Representative 22Rv1 cell CLSM images of the degradation of AR after incubation with FITC-labeled Psa-AR for 12 h and quantitative analysis, n = 3 per group. Scale bar: 10 μm. l, m Representative 22Rv1 cell CLSM images of the degradation of HSP90 after incubation with FITC-labeled Psa-AR for 12 h and quantitative analysis, n = 3 per group. Scale bar: 10 μm. n AR-V7 expression in 22Rv1 cells after treatment with PBS, P-AR (20 μM), Psa-AR (20 μM) or Psa-AR (20 μM) combined with MG132 (2 μM) for 48 h, as determined by western blotting. β-Actin was used as an internal reference. o Results of apoptosis in 22Rv1 cells treated with PBS, P-AR (20 μM), or Psa-AR (20 μM) for 48 h, as detected by flow cytometry.", "note": "Numbered stars: 1 amine (or outer) side, 2 acyl side, 3 side chain; on linkers, the order of the positions; unused ones are H or OH. Square brackets hold non-standard residues; d marks the D form. Peptide text beside a SMILES is read from it. * marks the point of attachment. X2 = CC1(C)C(=O)N(c2ccc(C#N)c(C(F)(F)F)c2)C(=S)N1c1ccc(C(=O)*)c(F)c1; X1 = O=C1CCC(N2C(=O)c3cccc(N(CC(=O)[*:2])[*:1])c3C2=O)C(=O)N1; EuK = O=C(O)CC[C@H](NC(=O)N[C@@H](CCCCN*)C(=O)O)C(=O)O; 2Nal = N[C@@H](Cc1ccc2ccccc2c1)C(=O)O"}
{"compound": "CC1(C)C(=O)N(c2ccc(C#N)c(C(F)(F)F)c2)C(=S)N1c1ccc(C(=O)NCCCC[C@H](NC(=O)CNc2cccc3c2C(=O)N(C2CCC(=O)NC2=O)C3=O)C(=O)N[C@@H](CS)C(=O)N[C@@H](CCC(N)=O)C(=O)N[C@@H](Cc2ccc(O)cc2)C(=O)N[C@@H](CC(N)=O)C(=O)N[C@@H](CCC(N)=O)C(=O)N[C@@H](Cc2ccc(O)cc2)C(=O)N[C@@H](Cc2ccc(O)cc2)C(=O)N[C@@H](Cc2ccc3ccccc3c2)C(=O)NCCCC[C@H](NC(=O)N[C@@H](CCC(=O)O)C(=O)O)C(=O)O)c(F)c1", "note": "(stereo partly shown) [Psa-AR] (H-[X1]K(X2)CQYNQYY[2Nal]-EuK)", "values": [{"measurement": "total apoptotic cells (early and late phases)", "result": 75, "unit": "%"}]}
